According to PubChem BioAssay AID2477 (Broad Institute, 2010):
pEC50: −log10 of the molar value. Values joined by “and” are separate entries in the source; they are usually repeats but may differ in a detail not shown here. Equal entries are not always repeated.

Tested on: Streptococcus pyogenes UMAA2166 viability, BacTiter-Glo luminescence, 6 h;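 active = compounds whose fitted viability EC50 is at most ten times the top tested dose; inconclusive = flat fit with partial activity, or a poor fit; inactive = the rest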
Assay: GAS bacterial viability reduction – luminescence, BacTiter-Glo, strain UMAA2166, counter-screen for streptokinase expression inhibitor project, dose response (AID 2477)

Compound	pEC50 (measured here: retest run 2)	pEC50 (measured here: retest run 3)	pEC50 (measured here: retest run 4)	EC50
CCCOc1ccc(-c2nc(Oc3ccc(OC)cc3)c3ccccc3n2)cc1	< 3.30	< 3.30	< 3.30	–
CC(C)Oc1nc(-c2ccc(Cl)cc2)nc2ccccc12	4.33	< 3.30	< 3.30	–
CCCOc1ccc(-c2nc(OC)c3ccccc3n2)cc1	< 3.30	< 3.30	< 3.30	–
COc1cccc(-c2nc(OC(C)C)c3ccccc3n2)c1	< 3.30	< 3.30	< 3.30	–
COc1ccc(S(=O)(=O)c2ccc(NC(=O)c3ccccc3Cl)cc2C#N)cc1	< 3.30	< 3.30	< 3.30	–
N#Cc1cc(NC(=O)c2ccc(Cl)cc2)ccc1Sc1ccccc1	4.15	4.16	–	–
COc1nc(-c2ccccc2)nc2ccccc12	< 3.30	< 3.30	< 3.30	–
COc1ccc(Sc2ccc(NC(=O)c3ccccc3Cl)cc2C#N)cc1	< 3.30	4.34	< 3.30	> 500 µM (inactive) and 36.7 µM
Cc1ccc(Sc2ccc(NC(=O)c3ccc(F)cc3)cc2C#N)cc1	< 3.30	< 3.30	< 3.30	–
COc1ccc(-c2nc(OC)c3ccccc3n2)cc1	< 3.30	< 3.30	–	–
CCCOc1ccc(-c2nc(Oc3ccccc3)c3ccccc3n2)cc1	< 3.30	< 3.30	< 3.30	–
COc1ccc(Sc2ccc(NC(=O)c3cccc(Cl)c3)cc2C#N)cc1	< 3.30	–	–	–
